Measured values as given in patent US11345956B2, “Methods and compositions related to prostate cancer therapeutics” (The Johns Hopkins University, priority 2014, dated 2022).
Where two headings read alike, the source gives them in different places.

Tested on: metastatic castration-resistant prostate cancer (CRPC)
Details: for median overall survival (OS): preliminary survival analysis; for PSA response rate (≥50% PSA decline from baseline, maintained ≥4 weeks): all patients of the cohort; for HR for PFS, AR-V7 presence / HR for PSA-PFS, AR-V7 presence: multivariable Cox model adjusting for AR-FL expression and prior use of the alternative AR-directed agent; for HR for PFS, AR-FL levels / HR for PSA-PFS, AR-FL levels / HR for PFS, previous use of alternative AR-directed agent / HR for PSA-PFS, previous use of alternative AR-directed agent: multivariable Cox model; for HR for PFS, AR-FL levels / HR for PSA-PFS, AR-FL levels: covariate AR-FL level; for HR for PFS, previous use of alternative AR-directed agent / HR for PSA-PFS, previous use of alternative AR-directed agent: previous abiraterone (enzalutamide cohort) or previous enzalutamide (abiraterone cohort); for Hazard Ratio (HR) for PFS, variable AR-FL Level (log) / Hazard Ratio (HR) for PFS, variable AR-V7 Positive / Hazard Ratio (HR) for PFS, variable Prior use of Abiraterone / Hazard Ratio (HR) for PSA-PFS, variable AR-FL Level (log) / Hazard Ratio (HR) for PSA-PFS, variable AR-V7 Positive / Hazard Ratio (HR) for PSA-PFS, variable Prior use of Abiraterone: propensity score weighted multivariable model; for hazard ratio (HR) for OS, AR-V7-positive vs AR-V7-negative / hazard ratio (HR) for PFS, AR-V7-positive vs AR-V7-negative / hazard ratio (HR) for PSA-PFS, AR-V7-positive vs AR-V7-negative: univariate, log-rank
[1] = AR-V7-negative patients (baseline CTCs)
[2] = AR-V7-positive patients (baseline CTCs)
[3] = no previous alternative AR-directed agent (abiraterone/enzalutamide), AR-V7 [+]
[4] = no previous alternative AR-directed agent (abiraterone/enzalutamide), AR-V7 [−]
[5] = previous alternative AR-directed agent (abiraterone/enzalutamide)
[6] = previous alternative AR-directed agent (abiraterone/enzalutamide), AR-V7 [+]
[7] = previous alternative AR-directed agent (abiraterone/enzalutamide), AR-V7 [−]
[8] = no previous alternative AR-directed agent (abiraterone/enzalutamide)

Experimental: Men with metastatic CRPC who were beginning standard-of-care treatment with enzalutamide or abiraterone were prospectively enrolled. Patients were required to have histologically-confirmed prostate adenocarcinoma, progressive disease despite “castration levels” of serum testosterone (<50 ng/dL; and androgen-deprivation therapy had to continue), and radiographic metastases on computed tomography (CT) or technetium-99 bone scans. […] Patients were excluded if they planned to receive additional concurrent anticancer therapies. Prior chemotherapy was permitted, as was previous treatment with the alternative AR-directed agent (i.e. prior abiraterone use in enzalutamide-treated patients, and vice versa).
This was a prospective study evaluating the ability of baseline (pretreatment) AR-V7 status from CTCs (circulating tumor cells) to predict response or resistance to AR-directed agents.
Follow-up was prospectively defined: patients had PSA measurements every 1-2 months, as well as CT (chest/abdomen/pelvis) and technetium-99 bone scans every 2-4 months.
CTC analyses were conducted using the commercially-available ALERE™ CTC AdnaTest platform (AdnaGen, Langenhagen, Germany). Isolation and enrichment of CTCs was performed using the ProstateCancerSelect kit, and mRNA expression analyses were performed using the ProstateCancerDetect kit with multiplexed reverse-transcription polymerase-chain-reaction (qRT-PCR) primers to detect the presence of CTCs, and custom primers designed to detect the full-length-AR (AR-FL) and AR splice variant-7 (AR-V7) (Hu, R., et al. (2009) Cancer Res 69, 16-22). Relative AR-V7 transcript abundance was determined by calculating the ratio of AR-V7 to AR-FL (Hu, R., et al. (2009) Cancer Res 69, 16-22; Watson, P. A., et al. (2010) Proceedings of the National Academy of Sciences).
Best PSA response (maximal percentage PSA decrease from baseline) for each patient was also determined.
Secondary endpoints included freedom-from-PSA-progression (PSA-progression-free-survival; PSA-PFS), freedom-from-clinical/radiographic-progression (progression-free-survival; PFS), and overall survival (OS). PSA-progression was defined as a ≥25% increase in PSA from nadir (and by ≥2 ng/mL), requiring confirmation ≥4 weeks later (PCWG2 criteria) (Scher, H. I., et al. (2008) Journal of Clinical Oncology: Oficial Journal of the American Society of Clinical Oncology 26, 1148-1159).

## CNC(=O)c1ccc(N2C(=S)N(c3ccc(C#N)c(C(F)(F)F)c3)C(=O)C2(C)C)cc1F [enzalutamide]
AR-V7-negative patients
  median PSA-progression-free survival (PSA-PFS): 6.0 months
  median clinical/radiographic progression-free survival (PFS): 6.1 months
  median overall survival (OS): not reached
[1]
  PSA response rate (≥50% PSA decline from baseline): 52.6%
AR-V7-positive patients
  median PSA-progression-free survival (PSA-PFS): 1.4 months
  median clinical/radiographic progression-free survival (PFS): 2.1 months
  median overall survival (OS): 5.5 months
[2]
  PSA response rate (≥50% PSA decline from baseline): 0%
  PSA response rate (≥50% PSA decline from baseline, maintained ≥4 weeks): 32.3%
  HR for PFS, AR-V7 presence: 3.0
  HR for PSA-PFS, AR-V7 presence: 3.1
  HR for PFS, AR-FL levels: 1.7
  HR for PSA-PFS, AR-FL levels: 1.4
  HR for PFS, previous use of alternative AR-directed agent: 2.6
  HR for PSA-PFS, previous use of alternative AR-directed agent: 2.5
  Hazard Ratio (HR) for PFS, variable AR-FL Level (log): 1.64
  Hazard Ratio (HR) for PFS, variable AR-V7 Positive: 3.38
  Hazard Ratio (HR) for PFS, variable Prior use of Abiraterone: 1.54
  Hazard Ratio (HR) for PSA-PFS, variable AR-FL Level (log): 1.33
  Hazard Ratio (HR) for PSA-PFS, variable AR-V7 Positive: 3.40
  Hazard Ratio (HR) for PSA-PFS, variable Prior use of Abiraterone: 2.66
  hazard ratio (HR) for OS, AR-V7-positive vs AR-V7-negative: 6.9
  hazard ratio (HR) for PFS, AR-V7-positive vs AR-V7-negative: 8.5
  hazard ratio (HR) for PSA-PFS, AR-V7-positive vs AR-V7-negative: 7.4
[3]
  PSA Response: 0%
[4]
  PSA Response: 80%
[5]
  PFA-PFS HR, AR-V7 [+] vs [−]: HR 3.34
  PFS HR, AR-V7 [+] vs [−]: HR 2.93
[6]
  PSA Response: 0%
[7]
  PSA Response: 22%

## C[C@]12CC[C@H](O)CC1=CC[C@@H]1[C@@H]2CC[C@]2(C)C(c3cccnc3)=CC[C@@H]12 [abiraterone]
AR-V7-negative patients
  median PSA-progression-free survival (PSA-PFS): > 5.3 months
  median clinical/radiographic progression-free survival (PFS): > 6.3 months
  median overall survival (OS): > 11.9 months
[1]
  PSA response rate (≥50% PSA decline from baseline): 68.0%
AR-V7-positive patients
  median PSA-progression-free survival (PSA-PFS): 1.3 months
  median clinical/radiographic progression-free survival (PFS): 2.3 months
  median overall survival (OS): 10.6 months
[2]
  PSA response rate (≥50% PSA decline from baseline): 0%
  PSA response rate (≥50% PSA decline from baseline, maintained ≥4 weeks): 54.8%
  HR for PFS, AR-V7 presence: 7.6
  HR for PSA-PFS, AR-V7 presence: 15.7
  HR for PFS, AR-FL levels: 1.1
  HR for PSA-PFS, AR-FL levels: 1.0
  HR for PFS, previous use of alternative AR-directed agent: 1.9
  HR for PSA-PFS, previous use of alternative AR-directed agent: 0.9
  Hazard Ratio (HR) for PFS, variable AR-FL Level (log): 1.36
  Hazard Ratio (HR) for PFS, variable AR-V7 Positive: 5.25
  Hazard Ratio (HR) for PFS, variable Prior use of Abiraterone: 1.72
  Hazard Ratio (HR) for PSA-PFS, variable AR-FL Level (log): 1.05
  Hazard Ratio (HR) for PSA-PFS, variable AR-V7 Positive: 17.51
  Hazard Ratio (HR) for PSA-PFS, variable Prior use of Abiraterone: 0.61
  hazard ratio (HR) for OS, AR-V7-positive vs AR-V7-negative: 12.7
  hazard ratio (HR) for PFS, AR-V7-positive vs AR-V7-negative: 16.5
  hazard ratio (HR) for PSA-PFS, AR-V7-positive vs AR-V7-negative: 16.1
[8]
  PFA-PFS HR, AR-V7 [+] vs [−]: HR 41.0
  PFS HR, AR-V7 [+] vs [−]: HR 28.2
[3]
  PSA Response: 0%
[4]
  PSA Response: 74%
[6]
  PSA Response: 0%
[7]
  PSA Response: 0%
